The source of these data is patent US7091346B1, “Purine derivatives and processes for their preparation” (Novartis AG, priority 1995, dated 2006).

Where only a bound is given, the exact number is not on record here.

A word on the melting point: it is the temperature, or range, at which the solid turns liquid.

`CCn1cnc2c(Nc3cccc(C(F)(F)F)c3)nc(NCCN)nc21` [Example 95, 2-(2-amino-ethyl-amino)-9-ethyl-6-(3-trifluoromethyl-phenyl-amino)-9H-purine] registered a melting point greater than 250 °C. On to `CC(C)n1cnc2c(Nc3ccc(F)cc3)nc(NCCO)nc21` [Example 96, 6-(4-fluoro-phenyl-amino)-2-(2-hydroxy-ethyl-amino)-9-isopropyl-9H-purine], for which the melting point is 139 °C. `CCn1cnc2c(Nc3ccc(F)cc3)nc(NCCO)nc21` [Example 99, 9-ethyl-6-(4-fluoro-phenyl-amino)-2-(2-hydroxy-ethyl-amino)-9H-purine] showed a melting point of 152 °C.

`COc1cccc(Nc2nc(NCCN)nc3c2ncn3C(C)C)c1` [Example 101, 2-(2-amino-ethyl-amino)-9-isopropyl-6-(3-methoxy-phenyl-amino)-9H-purine]: the melting point was found to be 181 °C. Then `CCn1cnc2c(Nc3ccc(C(F)(F)F)cc3)nc(NCCO)nc21` [Example 104, 9-Ethyl-2-(2-hydroxy-ethyl-amino)-6-(4-trifluoromethyl-phenyl-amino)-9H-purine], with 191 to 192 °C; and `CCn1cnc2c(Nc3cc(C(F)(F)F)cc(C(F)(F)F)c3)nc(NCCO)nc21` [Example 105, 9-ethyl-2-(2-hydroxy-ethyl-amino)-6-(3,5-di-trifluoromethyl-phenyl-amino)-9H-purine], with 202 °C.

The compound `CCn1cnc2c(Nc3ccc(Cl)c(C(F)(F)F)c3)nc(NCCO)nc21` [Example 106, 6-(4-chloro-3-trifluoromethyl-phenyl-amino)-9-ethyl-2-(2-hydroxy-ethyl-amino)-9H-purine] registered a melting point of 194 °C. As for `CCn1cnc2c(Nc3ccc(NC(=O)OCc4ccccc4)cc3)nc(NCCO)nc21` [Example 107, 6-(4-benzyloxycarbonylamino-phenyl-amino)-9-ethyl-2-(2-hydroxy-ethyl-amino)-9H-purine], the figure is 148 °C; as for `CCn1cnc2c(Nc3ccc(N)cc3)nc(NCCO)nc21` [Example 108, 6-(4-amino-phenyl-amino)-9-ethyl-2-(2-hydroxy-ethyl-amino)-9H-purine], 210 °C.
